Values quoted from earlier work, collected in patent CN104546722A, “米铂脂质体和制法” (priority 2015, dated 2015).
Read-outs that look alike come from different tables or passages of the source.

Legend:
[1] = system: rodent liver cancer cell line AH109A (鼠肝癌细胞株AH109A)
[2] = system: hepatocellular carcinoma (肝细胞癌)
[3] = system: human liver cancer cell line Li-7 (人肝癌细胞株Li-7)
[4] = after administration
[5] = system: hepatocellular carcinoma patients (肝细胞癌患者); details: human, in vivo
[6] = not given; remark: listed apart in the source
[7] = system: hepatocellular carcinoma patients (肝细胞癌患者); details: human, in vivo; remark: listed apart in the source
[8] = system: liver cancer patients (肝癌患者)
[9] = system: hepatocellular carcinoma patients (肝细胞癌患者)

Structure (SMILES): CCCCCCCCCCCCCC(=O)[O-].CCCCCCCCCCCCCC(=O)[O-].N[C@@H]1CCCC[C@H]1N.O.[Pt+2] [米铂一水合物, (SP-4-2)-[(1R,2R)-1,2环己二氨-N,N′]二(十四酸-O)合铂一水合物]
- tumour cell proliferation rate ([1]; 20 mg/mL in suspension): 明显降低
- antitumour effect ([1]; single dose of suspension): 剂量相关地抗肿瘤作用
- inhibition of cancer cell proliferation ([1]; suspension): 以剂量相关方式抑制癌细胞增殖
- time to disappearance of adverse reactions ([2]; almost all, after administration): 4~6 weeks
- CR rate (therapeutic effect, TE) ([2]; hepatocellular carcinoma): 60%
- tumour cell proliferation rate ([3]; 20 mg/mL in suspension): 明显降低
- antitumour effect ([3]; single dose of suspension): 剂量相关地抗肿瘤作用
- inhibition of cancer cell proliferation ([3]; suspension): 以剂量相关方式抑制癌细胞增殖
- total platinum mass concentration in blood (mean) (after first administration): 9.6 ng/mL
- total platinum mass concentration in blood (mean) (after second administration): 12.9 ng/mL
- total platinum concentration in blood [4]: 极低,可长时间维持
- 1-year survival rate [5]: 90.1%
- 2-year survival rate [5]: 75.9%
- 3-year survival rate [5]: 58.4%
- efficacy compared with 净司他丁斯酯 [5]: 疗效相当
- safety compared with 净司他丁斯酯 [5]: 更安全
- Cmax, reduced to ([6]; about 1 year after administration): ~17%
- total platinum concentration in blood (level) ([6]; after administration, (ng)): 极低,属微量且维持时间长
- 1-year survival rate [7]: 63.6%
- 2-year survival rate [7]: 38.2%

Structure (SMILES): CCCCCCCCCCCCCC(=O)[O-].CCCCCCCCCCCCCC(=O)[O-].N[C@@H]1CCCC[C@H]1N.[Pt+2] [米铂, 顺-[(1R,2R)-1,2-环己二胺-N,N’]双十四酰氧基合铂]
- CR rate ([8]; 9/16 patients): 56%
- tolerability ([8]; 16 patients): 耐受性好
- TEV (disappearance of mass or 100% tumour necrosis rate) ([9]; 22/83 patients): 26.5%
- hepatic vascular injury ([9]; from administration): 未发生肝血管损伤
- 2-year survival rate ([9]; human, in vivo): 75.9%
- 3-year survival rate ([9]; human, in vivo): 58.4%
